# Test results taken from US20240002361A1, “COMPOSITIONS AND METHODS FOR BLOCKING NEUROPILIN RECEPTOR 1 FOR THE TREATMENT OF PAIN AND PREVENTION OF VIRAL ENTRY” (Arizona Board of Regents on Behalf of the University of …, priority 2020, published 2024).
# “And” between values parts separate entries of the source, which are not always exact repeats. Identical values can stand only once.
# Tests used:
# NRP-1/VEGF-A interaction [1] = target: T1, NRP-1/VEGF-A interaction (Homo sapiens, UniProt O14786); experiment: ELISA-based NRP1-VEGF-A165 protein binding assay (concentration-response, IC50); details: 20 nM biotinylated hVEGF-A165 with 4 μg/ml heparin, n=3, read-out: Calculated IC50 values of inhibiting the NRP-1/VEGF-A interaction
# T1 construct: coated with the extracellular domain of human NRP-1 (containing the a1a2 and the b1b2 regions); purchased Fisher, Hampton, NH 50-101-8343
# T1 sequence (O14786 22-856 limits assumed): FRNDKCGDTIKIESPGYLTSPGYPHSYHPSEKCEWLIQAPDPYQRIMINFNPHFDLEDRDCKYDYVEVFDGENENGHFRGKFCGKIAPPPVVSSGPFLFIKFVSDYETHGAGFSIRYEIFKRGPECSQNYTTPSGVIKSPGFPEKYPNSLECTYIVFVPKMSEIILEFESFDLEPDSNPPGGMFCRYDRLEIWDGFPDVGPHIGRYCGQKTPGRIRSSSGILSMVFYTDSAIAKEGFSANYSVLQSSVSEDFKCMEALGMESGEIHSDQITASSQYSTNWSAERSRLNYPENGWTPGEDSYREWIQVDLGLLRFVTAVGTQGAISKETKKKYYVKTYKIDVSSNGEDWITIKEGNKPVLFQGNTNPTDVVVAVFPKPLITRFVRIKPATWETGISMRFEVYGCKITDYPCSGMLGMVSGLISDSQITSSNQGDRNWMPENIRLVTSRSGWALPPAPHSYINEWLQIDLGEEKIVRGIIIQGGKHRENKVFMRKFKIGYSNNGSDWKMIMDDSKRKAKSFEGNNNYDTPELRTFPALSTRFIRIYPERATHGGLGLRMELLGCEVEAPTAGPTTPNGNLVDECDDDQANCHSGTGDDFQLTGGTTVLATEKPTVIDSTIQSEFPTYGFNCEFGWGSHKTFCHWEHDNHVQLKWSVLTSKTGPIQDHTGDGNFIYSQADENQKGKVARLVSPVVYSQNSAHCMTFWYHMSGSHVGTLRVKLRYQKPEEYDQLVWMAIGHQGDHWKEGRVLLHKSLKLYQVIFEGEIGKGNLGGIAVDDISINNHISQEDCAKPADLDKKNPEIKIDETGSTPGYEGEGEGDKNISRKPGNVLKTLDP
# Procedure: Plates (96-well, Nunc Maxisorp; Thermo Fisher Scientific, Waltham, MA, USA) were coated with human Neuropilin-1-Fc (200 ng per well, Cat #50-101-8343, Fisher, Hampton, NH) and incubated at 4° C. overnight. The following day, the plates were washed and blocked with 3% BSA in PBS to minimize non-specific adsorptive binding to the plates. EG00229 (Cat #6986, Tocris) or the indicated compounds were added at different concentrations and incubated for 30 min at room temperature prior to adding biotinylated human VEGF-A165 (Cat #BT10543-025, R&D systems) at 20 nM with 4 μg/ml of heparin. As a negative control, some wells received PBS containing 3% BSA and as a positive control only hVEGF-A165 was used. The plates were incubated at room temperature with shaking for 2 h. Next, the plates were washed with PBS 0.05% Tween to eliminate unbound protein. Bound biotinylated VEGF was detected by streptavidin-HRP (Cat #016-030-084, Jackson immunoResearch). Tetramethylbenzidine (Cat #DY999, R&D Systems, St. Louis, MO) was used as the colorimetric substrate. The optical density of each well was determined immediately, using a microplate reader (Multiskan Ascent; Thermo Fisher Scientific) set to 450 nm with a correction wavelength of 570 nm. Percentage of inhibition was calculated by the following formula: […]
# where S is the optical density measured in the wells with the compounds, N is the optical density measured in the negative control wells and P is the optical density in the positive control wells. The IC50 was calculated using a non-linear regression function with GraphPad Prism Version 9. The data are presented as log (inhibitor) [M] versus normalized response-variable slope. Data are the means±S.E.M. of three independent experiments.
# Finally, the ability of the compounds to interfere with the NRP-1NEGF-A interaction was evaluated using an enzyme linked immunosorbent assay (ELISA), as previously described (Moutal, et al., Pain 2021, 12(1), 243-252). Plates were coated with the extracellular domain of human NRP-1 (containing the a1a2 and the b1b2 regions) and the compounds were added to disrupt the NRP-1NEGF-A interaction. The biotinylated human VEGF-A used in the experiments described above (Moutal, et al., Pain 2021, 12(1), 243-252) was discontinued. For the instant studies, biotinylated hVEGF-A (Cat #BT10543-025, R&D systems) was used. Because of that, the known NRP-1 antagonist EG00229 and compound 4 from the above series of inhibitors (Moutal, et al., Pain 2021, 12(1), 243-252) were also tested in the instant studies.
# physchem = type: physicochemical; details: for logD: pH 7.4; for solubility kinetic: pH 7.4, aqueous buffer, kinetic from dmso stock
# Procedure: (§1) Additionally, an initial absorption, distribution, metabolism, and excretion (ADME) profile of the compound series was performed (Table 4).
# in vitro = in vitro ADME; details: microsomes
# Procedure: as §1
# HepG2 cells = experiment: Cell proliferation and cytotoxicity in HepG2 cells (CellTiterGlo); type: cell-based; details: Homo sapiens, 48 h
# Procedure: as §1
# NRP-1/VEGF-A interaction [2] = target: T1, NRP-1/VEGF-A interaction; experiment: ELISA-based NRP1-VEGF-A165 protein binding assay (single concentration); details: compounds 12.5 μM (Spike S1 100 nM), biotinylated VEGF-A165 10 nM; ± standard error of the mean, n = 11
# VSV-eGFP-SARS-CoV-2 = type: cell-based
# pY1175 VEGFR2 = experiment: In cell Western for detecting inhibition of VEGFR2 activation by VEGF-A165; type: cell-based, mouse; details: CAD cells, compounds 12.5 μM or Spike 100 nM, 1 nM VEGF-A165, 1 hour
Compound,IC50 (NRP-1/VEGF-A interaction [1]),logD (physchem),solubility kinetic (physchem) [µM],half-life (in vitro; human) [min],half-life (in vitro; mouse) [min],half-life (in vitro; rat) [min],IC50 (HepG2 cells) [µM],Rel % inhibition (NRP-1/VEGF-A interaction [2]) [%],inhibition of VSV-eGFP-SARS-CoV-2 antiviral activity (VSV-eGFP-SARS-CoV-2),inhibition of VEGF-A stimulated increased phosphorylation of VEGFR2 (pY1175) (pY1175 VEGFR2)
"COc1cccc(-c2nc(Nc3c[nH]c(C(=O)O)c3)cc(=O)[nH]2)c1 [1g′, 4-[[2-(3-methoxyphenyl)-6-oxo-1H-pyrimidin-4-yl]amino]-1H-pyrrole-2-carboxylic acid]",28.2 µM,-0.62,> 200,> 120,> 120,> 120,> 30,,,
"COc1cccc(-c2cc(=O)[nH]c(Nc3c[nH]c(C(=O)O)c3)n2)c1 [1g′-iso, 4-[[4-(3-methoxyphenyl)-6-oxo-1H-pyrimidin-2-yl]amino]-1H-pyrrole-2-carboxylic acid]",32 µM,-0.38,> 200,> 120,> 120,> 120,> 30,,,
COc1cccc(-c2cc(=O)[nH]c(Nc3ccccc3)n2)c1 [Compound 1],,,,,,,,56 ± 7,,
"COc1cccc(-c2cc(=O)[nH]c(Nc3ccnc(N)c3)n2)c1 [Compound 1a, 2-[(2-amino-4-pyridyl)amino]-4-(3-methoxyphenyl)-1H-pyrimidin-6-one]",214 µM,1.64,184,> 120,29.3,3.8,> 30,,,
"COc1cccc(-c2nc(Nc3ccccc3)cc(=O)[nH]2)c1 [Compound 1b, 4-anilino-2-(3-methoxyphenyl)-1H-pyrimidin-6-one]",112 µM,3.78,3.5,14.8,9.4,8.3,> 30,,,
"COc1cccc(-c2cc(Nc3ccccc3)[nH]c(=O)n2)c1 [Compound 1b-iso, 6-anilino-4-(3-methoxyphenyl)-1H-pyrimidin-2-one]",105 µM,2.78,4.7,102,22,4.4,> 30,,,
"COc1cccc(-c2cc(=O)[nH]c(Nc3cccc(O)c3)n2)c1 [Compound 1c, 2-(3-hydroxyanilino)-4-(3-methoxyphenyl)-1H-pyrimidin-6-one]",23.1 µM,2.49,14.2,> 120,71.7,4.4,> 30,,,
"COc1cc(-c2cc(=O)[nH]c(Nc3ccc(Cl)c(O)c3)n2)ccn1 [Compound 1d, 2-(4-chloro-3-hydroxy-anilino)-4-(2-methoxy-4-pyridyl)-1H-pyrimidin-6-one]",134 µM,3.15,19.4,28.4,59.7,14.1,> 30,,,
"COc1cc(-c2cc(=O)[nH]c(Nc3ccccc3)n2)ccn1 [Compound 1s, 2-anilino-4-(2-methoxy-4-pyridyl)-1H-pyrimidin-6-one]",1030 µM,3.15,11.5,16.6,13.6,9.4,> 30,,,
"COc1cccc(-c2cc(=O)[nH]c(Nc3cc[nH]n3)n2)c1 [Compound 1t, 4-(3-methoxyphenyl)-2-(1H-pyrazol-3-ylamino)-1H-pyrimidin-6-one]",128 µM,2.67,48.7,64.5,4.5,12.7,> 30,,,
"COc1cccc(-c2cc(=O)[nH]c(Nc3ccccc3)n2)n1 [Compound 1u, 2-anilino-4-(6-methoxy-2-pyridyl)-1H-pyrimidin-6-one]",369 µM,3.51,10.4,18.9,9.6,3.9,> 30,,,
"COc1ccc(C)c(-c2cc(=O)[nH]c(Nc3ccccc3)n2)c1 [Compound 1v, 2-anilino-4-(5-methoxy-2-methyl-phenyl)-1H-pyrimidin-6-one]",,2.91,8,> 120,> 120,4.7,> 30,,,
CC(C)Cc1cc(C(=O)NCC2CCOC2)nc(=O)[nH]1 (stereo not shown) [Compound 2],,,,,,,,59 ± 11,,
"CC(C)Cc1cc(C(=O)NCCO)nc(=O)[nH]1 [Compound 2a, N-(2-hydroxyethyl)-6-isobutyl-2-oxo-1H-pyrimidine-4-carboxamide]",≤ 32 µM and 1.8 µM,0.02,> 200,> 120,> 120,> 120,> 30,,,
COc1ccccc1Nc1nc(-c2cnc(N3CCCC3)nc2C)cc(=O)[nH]1 [Compound 5],,,,,,,,42 ± 10,,
COc1ccccc1Nc1nncc(=O)[nH]1 [Compound 7],,,,,,,,18 ± 19,,
O=c1cnnc(Nc2ccccc2O)[nH]1 [Compound 8],,,,,,,,24 ± 16,,
Cc1cc(CN(C)Cc2cc(=O)[nH]c(=O)[nH]2)no1 [Compound 9],,,,,,,,43 ± 8,,
"O=c1cc(Nc2cccc(O)c2)[nH]c(=O)[nH]1 [Compound 9c, 6-(3-hydroxyanilino)-1H-pyrimidine-2,4-dione]",469 µM,0.38,> 200,> 120,> 120,> 120,> 30,,,
O=C(O)Cc1cnc(-c2cccnc2)[nH]c1=O [Compound 11],,,,,,,,43 ± 16,,
O=C(/C=C/c1ccc(O)c(O)c1)O[C@@H](C(=O)O)[C@@H](O)C(=O)O [Compound 17],,,,,,,,12 ± 16,~15%,
"NC(N)=NCCC[C@H](NC(=O)c1sccc1NS(=O)(=O)c1cccc2nsnc12)C(=O)O [EG00229, reference compound]",1370 µM,,,,,,,33 ± 10,ineffective,blocked
